“Also recorded” adds a separate entry of the source. Read-outs that look alike come from different tables or passages of the source. Positions of bridges follow the written chain, without caps; N, C: chain ends. Non-standard residues stand in square brackets, D forms with d. Residues, ends and D or L forms follow the SMILES beside them. Ser(allyl) = C=CCOC[C@H](N)C(=O)O

For assay [1], the target named is T1, Grb7-SH2 domain (Homo sapiens, UniProt Q14451). Further details: Grb7-SH2 (encoding residues 415–532); made in house; host or cells: E. coli BL21 (DE3) pLysS. Particulars: previously determined by ITC; cited from earlier work.
Assay [2] addresses T1, Grb7-SH2 domain. The assay is described as follows: SPR binding of G7 peptides to GST-Grb7-SH2 domain. Particulars: for Kd: KD (equilibrium dissociation constant), steady-state equilibrium, single-site model, 50 mM sodium phosphate, 150 mM NaCl, 1 mM DTT, pH 7.4, 25 °C; for Bmax (maximum binding signal): fit to single-site saturation model. In general terms: In SPR one partner is held on a chip, and binding of the other changes the refractive index at the surface.

The next assay deals with T2, Grb14-SH2 domain (Homo sapiens, UniProt Q14449).
T2 construct: Grb14-SH2 (encoding residues 426–540); made in house; host or cells: E. coli BL21 (DE3) pLysS
T2 sequence (Q14449 426-540): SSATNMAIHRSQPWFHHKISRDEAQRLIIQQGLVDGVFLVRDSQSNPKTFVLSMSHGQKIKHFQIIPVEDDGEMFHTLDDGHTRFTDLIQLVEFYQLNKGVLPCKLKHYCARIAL
Briefly: SPR binding of G7-B4 to GST-Grb14-SH2 domain. From the text:
(§1) Previous studies have established the preferential binding of the G7-18NATE peptide to Grb7-SH2 over closely related SH2 domains (Grb10- and Grb14-SH2 domains that share 67% and 65% identity respectively, to the Grb7-SH2 and Grb2-SH2 (~26% identity) domain that shares the pYXN peptide recognition motif)[26]. In order to determine whether the bicyclic peptide G7-B4 retains its specificity for the Grb7-SH2 domain we measured the binding of G7-B4 to Grb2-, Grb10- and Grb14-SH2 domains using SPR. […] Therefore the binding of G7-B4 to Grb2-, Grb10- and Grb14-SH2 is over 130 times weaker than binding to Grb7-SH2 domain, showing that G7-B4 is highly specific for the Grb7-SH2 domain.
(§2) The pGEX2T plasmids with inserts containing Grb7-SH2 (encoding residues 415–532), Grb2-SH2 (encoding residues 58–160), Grb10-SH2 (encoding residues 471–594) and Grb14-SH2 (encoding residues 426–540) were kindly provided by Dr. Roger Daly. Glutathion-S-Transferase (GST)-Grb2-SH2, GST-Grb7-SH2, Grb-10-SH2 and GST-Grb14-SH2 were all expressed and purified as previously described. […] The free Grb7-SH2 used in crystallography was expressed as a GST-fusion protein and was purified by GST affinity, followed by thrombin cleavage to liberate free Grb7-SH2, and then purified by cation exchange chromatography, and size exclusion chromatography as previously described. […]

In the next assay the target is T3, Grb10-SH2 domain (Homo sapiens, UniProt Q13322).
T3 construct: Grb10-SH2 (encoding residues 471–594); made in house; host or cells: E. coli BL21 (DE3) pLysS
T3 sequence (Q13322 471-594): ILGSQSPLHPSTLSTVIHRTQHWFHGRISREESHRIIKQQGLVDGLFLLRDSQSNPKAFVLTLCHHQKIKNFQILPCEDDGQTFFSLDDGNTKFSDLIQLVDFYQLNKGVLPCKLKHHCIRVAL
The assay is described as follows: SPR binding of G7-B4 to Grb10-SH2 domain.
Excerpt: as §1, §2

A further assay addresses T4, Grb2-SH2 domain (Homo sapiens, UniProt P62993).
T4 construct: Grb2-SH2 (encoding residues 58–160); made in house; host or cells: E. coli BL21 (DE3) pLysS
Briefly: SPR binding of G7-B4 to GST-Grb2-SH2 domain.
Excerpt: as §1, §2

Assay [3] has as its target T5, GST-Grb7-SH2 (UniProt Q14451 415-532).
T5 construct: pGEX2T insert; GST fusion used in SPR, captured by an anti-GST antibody; also called Grb7-SH2 domain
The assay is described as follows: SPR; BIAcore T100; GST-SH2 proteins captured on anti-GST antibody on a CM5 chip, GST on the control cells; peptides 0-100 uM injected 60 s at 30 uL/min; 50 mM sodium phosphate, 150 mM NaCl, 1 mM DTT, pH 7.4; 25 C; KD from steady-state curves, single-site model. Particulars: both partners purified.

Assay [4] has as its target T5, GST-Grb7-SH2. The description is as above. Particulars: both partners purified. This is another data set of the same source.
Setting [5] is: SPR, no curvature up to 100 μM, saturation well below 50%.

T4 sequence (P62993 58-160): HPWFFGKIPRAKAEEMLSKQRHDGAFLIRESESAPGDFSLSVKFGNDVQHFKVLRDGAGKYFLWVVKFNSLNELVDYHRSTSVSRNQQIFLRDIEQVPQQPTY
T1 sequence (Q14451 415-532): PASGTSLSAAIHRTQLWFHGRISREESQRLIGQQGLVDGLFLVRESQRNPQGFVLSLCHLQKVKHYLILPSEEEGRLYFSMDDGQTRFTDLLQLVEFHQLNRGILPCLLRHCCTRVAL
T5 sequence (Q14451 415-532): as above

Broadly, the Kd is the constant that tells how readily two partners part at equilibrium. For the molecule `NC(=O)C[C@@H]1NC(=O)[C@H](CC(=O)O)NC(=O)[C@H](Cc2ccc(O)cc2)NC(=O)CNC(=O)[C@H](CCC(=O)O)NC(=O)[C@H](Cc2ccccc2)NC(=O)[C@@H]2COCC=CCOC[C@H](NC1=O)C(=O)N[C@@H](Cc1ccccc1)C(=O)N1CCC[C@H]1C(=O)N[C@H](C(N)=O)CSCC(=O)N2` [Peptide G7-B1] ({CH2CO}-[Ser(allyl)]FEGYDN[Ser(allyl)]FPC-NH2; staple 1-8; thioether N-11), the dissociation constant (Kd) at Grb7-SH2 domain [1] was 1.9 µM.
For the molecule “CH3-CO-NH2-(XFEGYDNX)-CONH2 where X = O-allylserine (Ac-[Ser(allyl)]FEGYDN[Ser(allyl)]-NH2; staple 1-8; SMILES CC(=O)N[C@H]1COCC=CCOC[C@@H](C(N)=O)NC(=O)[C@H](CC(N)=O)NC(=O)[C@H](CC(=O)O)NC(=O)[C@H](Cc2ccc(O)cc2)NC(=O)CNC(=O)[C@H](CCC(=O)O)NC(=O)[C@H](Cc2ccccc2)NC1=O) [Peptide G7-B1NT]”, the “binding to Grb7-SH2 domain (in words)” value in the assay with Grb7-SH2 domain [2] (SPR, peptide up to 100 μM) is “very weak binding; also recorded: dramatically reduced affinity”.
As for `C=CCOC[C@@H]1NC(=O)CSC[C@@H](C(N)=O)NC(=O)[C@H](COCC=C)NC(=O)[C@H](CC(N)=O)NC(=O)[C@H](CC(=O)O)NC(=O)[C@H](Cc2ccc(O)cc2)NC(=O)CNC(=O)[C@H](CCC(=O)O)NC(=O)[C@H](Cc2ccccc2)NC1=O` [Peptide G7-B4NS] ({CH2CO}-[Ser(allyl)]FEGYDN[Ser(allyl)]C-NH2; thioether N-9), on Grb7-SH2 domain [2] (SPR), the Kd is 4.9 µM and the “Bmax (maximum binding signal)” value came out at 34.78 ± 0.01 RU. In addition, the “fold loss in binding affinity compared to G7-B4” value at Grb7-SH2 domain [2] (ratio of SPR KD values) worked out at 6 fold.
As for `NC(=O)C[C@@H]1NC(=O)[C@H](CC(=O)O)NC(=O)[C@H](Cc2ccc(O)cc2)NC(=O)CNC(=O)[C@H](CCC(=O)O)NC(=O)[C@H](Cc2ccccc2)NC(=O)[C@@H]2COCC=CCOC[C@H](NC1=O)C(=O)N[C@H](C(N)=O)CSCC(=O)N2` [Peptide G7-B4] ({CH2CO}-[Ser(allyl)]FEGYDN[Ser(allyl)]C-NH2; staple 1-8; thioether N-9), the Kd on Grb14-SH2 domain (setting [5]), at Grb10-SH2 domain (setting [5]) and on Grb2-SH2 domain (setting [5]) was greater than 100 µM in each case. Also, the “times weaker binding than to Grb7-SH2 domain” value on Grb14-SH2 domain (selectivity Grb7-SH2 over Grb14-SH2), at Grb10-SH2 domain (selectivity Grb7-SH2 over Grb10-SH2) and on Grb2-SH2 domain (selectivity Grb7-SH2 over Grb2-SH2) was “over 130 times” in each case.
Turning to `NC(=O)C[C@@H]1NC(=O)[C@H](CC(=O)O)NC(=O)[C@H](Cc2ccc(O)cc2)NC(=O)CNC(=O)[C@H](CCC(=O)O)NC(=O)[C@H](Cc2ccccc2)NC(=O)[C@@H]2COCC=CCOC[C@H](NC1=O)C(=O)N1CCC[C@H]1C(=O)N[C@H](C(N)=O)CSCC(=O)N2` [Peptide G7-B3] ({CH2CO}-[Ser(allyl)]FEGYDN[Ser(allyl)]PC-NH2; staple 1-8; thioether N-10), at Grb7-SH2 domain [2] (SPR), the Kd was 4.9 ± 0.03 µM and the “Bmax (maximum binding signal)” value is reported as 53.47 ± 0.02 RU. Also, the “times weaker affinity compared to G7-B1” value at Grb7-SH2 domain [2] (ratio of SPR KD values) is on record as “approximately 3 times”.

B1: G7-B4NS (cyclo-(CH2CO-(XFEGYDNXC)-CONH2 where X = O-allylserine), without ring closing metathesis (peptide)
chain: {CH2CO}-[Ser(allyl)]FEGYDN[Ser(allyl)]C-NH2
modifications: thioether N-9
SMILES: C=CCOC[C@@H]1NC(=O)CSC[C@@H](C(N)=O)NC(=O)[C@H](COCC=C)NC(=O)[C@H](CC(N)=O)NC(=O)[C@H](CC(=O)O)NC(=O)[C@H](Cc2ccc(O)cc2)NC(=O)CNC(=O)[C@H](CCC(=O)O)NC(=O)[C@H](Cc2ccccc2)NC1=O
Turning to B1, in the assay with GST-Grb7-SH2 [3], the Kd was determined as 4.93 µM.
The term koff denotes a measure of how fast the partners let go of each other. Molecule {CH2CO}-[Ser(allyl)]FEGYDN[Ser(allyl)]C-NH2 (staple 1-8; thioether N-9) [G7-B4 (cyclo-(CH2CO-(XFEGYDNXC)-CONH2 where X = O-allylserine)] yielded a koff with GST-Grb7-SH2 [4] of roughly 0.25 s⁻¹. This molecule had a Kd with GST-Grb7-SH2 [3] of 0.83 µM.

B2: G7-B1 (cyclo-(CH2CO-(XFEGYDNXFPC)-CONH2 where X = O-allylserine) (peptide)
chain: {CH2CO}-[Ser(allyl)]FEGYDN[Ser(allyl)]FPC-NH2
modifications: staple 1-8; thioether N-11
SMILES: NC(=O)C[C@@H]1NC(=O)[C@H](CC(=O)O)NC(=O)[C@H](Cc2ccc(O)cc2)NC(=O)CNC(=O)[C@H](CCC(=O)O)NC(=O)[C@H](Cc2ccccc2)NC(=O)[C@@H]2COCC=CCOC[C@H](NC1=O)C(=O)N[C@@H](Cc1ccccc1)C(=O)N1CCC[C@H]1C(=O)N[C@H](C(N)=O)CSCC(=O)N2
In the assay with GST-Grb7-SH2 [4], B2 came in with a koff of roughly 0.21 s⁻¹. In addition, in the assay with GST-Grb7-SH2 [3], binding was characterised by a dissociation constant (Kd) of 1.5 µM.

Values taken from paper PMC4891710, “Unexpected involvement of staple leads to redesign of selective bicyclic peptide inhibitor of Grb7” (Scientific Reports, 2016).
